# pKi: −log10 of the molar value. Where “and” joins values, the source holds several entries; their conditions need not be identical. Equal entries are not always repeated. Where two headings read alike, the source gives them in different places.
# Key:
# [1] = test system: uteri obtained from fertilized pigs; details: average, uteri undergoing normal estrous cycle, regardless of phase; 0.003 µM; cited from earlier work
# human endometrium = test: Oxidation and sulfurylation of tritiated E2 by human endometrial curettings; format: in vitro ADME; details: 0.003 µM
# Description: (§1) Radioisotopes. [6,7-^3 H]E2 and [2,4,6,7-^3 H]E2 were obtained from New England Nuclear Corp., Boston, Mass., and purified on ITLC-SA (Gelman Instrument Co.) with CHCl3 :CH3 OH (97:3) as the developing solvent. Na2^35 SO4 was obtained from New England Nuclear Corp. and used directly from the bottle.
# (§2) Human endometria. Endometrial specimens (60-1500 mg) were gathered from the operating room at the time of surgery and placed in 0.9% saline solution on ice. Most patients (22) were young women undergoing tubal ligations for the purpose of sterilization, two patients were having IUD's removed and eight patients (hysterectomies and laparoscopies) had normal endometria upon histological examination. All had had at least one pregnancy, had no endocrine problems, were cycling normally and were not taking any drugs, except for two patients on Librium® and two on Aldoril®. Ages ranged from 23 to 48 years, the average being 31±5 years.
# (§3) Metabolism. Amounts varying from 55 to 400 mg of endometrium were incubated in 2.5 ml of modified bicarbonate buffer with 10 μl of [6,7-^3 H]E2 (3×10^-9 M) and 100 μl of Na2^35 SO4 (1×10^-4 M). The remainder of the procedure was the same as described for gilt uterus in Example 2
# [2] = as above; format: in vitro ADME; details: human, endometrium, Table IV, 2 h, 3×10^-9 M E2
# Description: as §1, §2, §3
# [3] = target: T1, Bovine Adrenal Estrogen Sulfotransferase (Bos taurus, UniProt P19217); test: Inhibition of bovine adrenal estrogen sulfotransferase (estrone sulfurylation); format: biochemical
# T1 construct: The enzyme was isolated from the bovine adrenals; from tissue; host or cells: bovine adrenals; purified by ammonium sulfate fractionation and chromatography on DEAE-cellulose or DEAE-Sephadex A-50
# T1 sequence (P19217 1-295): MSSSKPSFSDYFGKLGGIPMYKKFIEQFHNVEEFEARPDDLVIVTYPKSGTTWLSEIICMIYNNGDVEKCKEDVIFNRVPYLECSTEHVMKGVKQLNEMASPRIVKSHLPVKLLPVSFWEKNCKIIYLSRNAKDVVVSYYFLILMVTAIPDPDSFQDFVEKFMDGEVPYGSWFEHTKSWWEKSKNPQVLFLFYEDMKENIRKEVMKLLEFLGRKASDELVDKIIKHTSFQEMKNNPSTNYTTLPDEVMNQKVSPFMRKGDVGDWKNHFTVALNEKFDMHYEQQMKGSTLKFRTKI
# Description: Materials are evaluated for activity as estrogen sulfotransferase inhibitors by the method of Rozhin et al, Journal of Biological Chemistry, 252:7214-7220 (October 25, 1977), herein incorporated by reference.
# Isolation of Estrogen Sulfotransferase (EC 2.8.2.4). The enzyme was isolated from the bovine adrenals and purified by ammonium sulfate fractionation and column chromatography on DEAE-cellulose or DEAE-SephadexA-50 [Rozhin et al (1974)].
# Standard Enzyme Assay. The incubation mixtures contained the following in a total volume of 0.2 ml: 0.4 mM P-Ado-PS; 2 to 23 μM estrone (3-hydroxy-1,3,5(10)-estratriene-17-one), 5×10^5 dpm of [6,7-^3 H]estrone; 5 mM magnesium acetate; 0.19 M Tris/HCl buffer (pH 8.1 at 37°); 5 ug of the enzyme; and 25 μM dithiothreitol. After a 10-min incubation (in the presence of a constant amount of inhibitor and a variable amount of estrone), the boiled mixtures were supplemented with 5 μg of aqueous estrone sulfate. The remaining [^3 H]estrone was extracted three times with 0.3 ml of ethyl ether. The residual ether was removed and the volume adjusted to 0.5 ml with methanol. A sample (25 μl) was applied, together with 10 μg of methanolic estrone sulfate marker, to type SG chromatography media (Gelman Instrument Co., Ann Arbor, Mich.), and developed with chloroform/acetone/acetic acid (110:35:6). After drying the sheet, samples were visualized by spraying with methylene blue (25 mg in 100 ml of 0.05 N H2 SO4), punched out with a cork borer, and counted in 10 ml of dioxane counting liquid. A blank employing a boiled enzyme sample was incubated and the recorded counts were substracted from each determination. The total corrected counts, representing steroid sulfate ester, were converted to nanomoles utilizing the specific activity of [^3 H]estrone. An enzyme unit was defined as that quantity of enzyme which synthesized 1 nmol of estrone sulfate in 1 min under chosen conditions. […] When nonsubstrate steroids were used as the inhibitors, the procedure for the enzyme assay was as described earlier [Rozhin et al (1974)], utilizing 5 μg of enzyme, P-Ado-[^35 S]PS, and unlabeled estrone.
# Data Processing. The initial velocity analysis was carried out keeping the concentration of P-Ado-PS at saturation level, varying the estrone concentration and keeping the concentration of the inhibitor at a fixed level. Preliminary plots of the data were made in the double reciprocal form (l/v versus l/[S]), and in the form of replots of slopes (and intercepts) versus inhibitor concentration. On the basis of these plots, the proper inhibition pattern was chosen for each experiment and the data points were fitted to the appropriate equation.
# Linear competitive inhibition: [formula]
# Hyperbolic competitive inhibition: [formula]
# Slope-parabolic non-competitive inhibition: [formula]
# All calculations were performed using Cleland's Fortran programs (Adv. Enzymol., 29:1-32). The programs gave the values of Km, Vmax, and inhibition constants.
# Fractional Inhibition. From kinetic experiments, Ki was calculated as described above under "Data Processing" after making replots of slopes (and/or intercepts) versus inhibitor concentration. […] Substituting v and vi from the corresponding rate equations in the absence of (v=(Vmax [S])/(Km +[S])) and presence of a (competitive) inhibition (Equation 1), the following relationship for FI is obtained: [formula] After substituting [S], Km, and [I] (see above), the equation for the fractional (competitive) inhibition simplifies to: [formula] and the mathematical relationship between FI and Ki of competitive inhibitors is represented by the continuous curve in FIG. 2 in Rozhin et al., J. Biol. Chem., 252, 7214-7220, 1977. The dashed line represents the relationship between FI and the Ki of pure noncompetitive inhibition derived mathematically in an analogous manner and expressed as [formula] Since [I]=22.2 μM, [formula]
structure (smiles),measurement,setting,value
"C[C@]12CC[C@@H]3c4ccc(O)cc4CC[C@H]3[C@@H]1CC[C@@H]2O [1,3,5(10)Estratriene-3,17β-diol]","added E2 found as free E1, normal estrous cycle",[1],18.7±7.2%
same,"Percent of tritiated E2 sulfurylated, proliferative","human endometrium; Table IV, proliferative days 4-7, 55, 118, 329 mg tissue by row, 2 h, 3×10^-9 M E2",0%
same,"Percent of tritiated E2 oxidized to estrone, proliferative","human endometrium; Table IV, proliferative days 4-7, 55, 118, 329 mg tissue by row, 2 h, 3×10^-9 M E2, listed as E2, 120 min",47% and 45%
same,"Percent of tritiated E2 oxidized to estrone (E1 + E1 sulfate), secretory","human endometrium; Table IV, secretory day 24, 60, 120, 300 mg tissue by row, 2 h, 3×10^-9 M E2, listed as E2, 120 min",82%
same,"oxidation of labeled E2 to E1 plus E1 sulfate, days 14 and 15","human endometrium; same three endometrial curettings, days 14 and 15, listed as E2, 0.003 µM",70% and 75% and 93%
same,"metabolised at 2 h, 0.003 µM","[2]; proliferative days 4-7, 55, 118, 329 mg tissue by row, read-out: Percent of tritiated E2 oxidized to estrone, proliferative",29%
same,"metabolised at 2 h, 0.003 µM","[2]; secretory day 24, 60, 120, 300 mg tissue by row, read-out: Percent of tritiated E2 oxidized to estrone (E1 + E1 sulfate), secretory",78%
same,pKi,"[3]; inhibitors 3 to 6, 12 and 16, from kinetic experiments, read-out: Ki (Table I), determined experimentally",5.21
same,inhibition at 22.2 µM,"[3]; pH 8.1, read-out: Fractional Inhibition (Table I)",68%
